The values below come from ChEMBL document CHEMBL1133276, “Effect of C2-exo unsaturation on the cytotoxicity and DNA-binding reactivity of pyrrolo[2,1-c][1,4]benzodiazepines” (2000).

The subject of test [1] is CH1. Nature of the test: In vitro cytotoxicity of compound was determined against CH1 cell lines at 37 degree C for 96 hr. Type of test: functional, Homo sapiens.
A short description of test [2]: Resistance factor of compound was determined from cisplatin resistant A2780 cell lines to that of A2780 cell lines. Type of test: functional.
The subject of test [3] is A2780. In words: In vitro cytotoxicity of compound was determined against A2780 cell lines (cisplatin resistant) at 37 degree C for 96 hr. The format is functional, Homo sapiens.
Test [4] deals with A2780. In words: In vitro cytotoxicity of compound was determined against A2780 cell lines at 37 degree C for 96 hr. Type of test: functional, Homo sapiens.
The test system of test [5] is Nucleic Acid. In words: Change in thermal denaturation temperature determined from calf thymus DNA after incubation at 37 degree celsius for 4 hours. Type of test: functional. The settings on record: Bos taurus.
The subject of another test is SK-OV-3. Nature of the test: In vitro cytotoxicity of compound was determined against SKOV-3 cell lines at 37 degree C for 96 hr. Type of test: functional, Homo sapiens.
Test [6] deals with CH1. Nature of the test: In vitro cytotoxicity of compound was determined against CH1 (cisplatin resistant) cell lines at 37 degree C for 96 hr. Type of test: functional, Homo sapiens.
For test [7], the system named is Nucleic Acid. In words: Change in thermal denaturation temperature determined from calf thymus DNA after incubation at 37 degree celsius for 0 hours. The format is functional. The settings on record: Bos taurus.
A short description of test [8]: Resistance factor of compound was determined from cisplatin resistant CH1 cell lines to that of CH1 cell lines. The format is functional.
Test [9] concerns Nucleic Acid. In words: Change in thermal denaturation temperature determined from calf thymus DNA after incubation at 37 degree celsius for 18 hours. The settings on record: Bos taurus. The format is functional.

`C/C=C1/C[C@H]2C=Nc3cc(O)c(OC)cc3C(=O)N2C1`: the Cytotoxicity with CH1 [1] is 0.00013 µM.
By ΔTm is commonly meant the shift of the melting midpoint relative to a reference. Regarding `COc1cc2c(cc1OC)C(=O)N1CCC[C@H]1C=N2`, the Resistance factor in [2] is 2.4; in [8], 1.3. The Cytotoxicity in the test with A2780 [3] was determined as 0.155 µM; in the test on A2780 [4] it was 0.064 µM; in the test on CH1 [1], 0.082 µM; in the test with SK-OV-3, 1.7 µM; in the test with CH1 [6] it was 0.11 µM. The ΔTm in the test on Nucleic Acid [5] is 0.43 °C; with Nucleic Acid [7], 0.24 °C; in the test on Nucleic Acid [9], 0.57 °C.
For the compound `COc1cc2c(cc1OCc1ccccc1)N=C[C@@H]1CCCN1C2=O`, the figures for the Resistance factor in test [2] and in test [8] were 2.8 and 1, respectively. Moreover, the Cytotoxicity in the test with A2780 [3] was 0.48 µM; with A2780 [4] it was 0.17 µM; in the test on CH1 [1], 0.145 µM; in the test with SK-OV-3 it was 0.46 µM; with CH1 [6] it was 0.145 µM. Further, the ΔTm with Nucleic Acid [5] was 0.4 °C; with Nucleic Acid [7], 0.2 °C; in the test on Nucleic Acid [9], 0.4 °C.
As to `C=C1C[C@H]2C=Nc3cc(OCc4ccccc4)c(OC)cc3C(=O)N2C1`, the Resistance factor in [2] worked out at 6.9; in [8], 4.8. The Cytotoxicity in the test on A2780 [3] worked out at 0.2 µM; in the test with A2780 [4] it was 0.029 µM; with CH1 [1] it was 0.017 µM; with SK-OV-3, 0.35 µM; in the test on CH1 [6], 0.082 µM. Further, the ΔTm with Nucleic Acid [5] is 1.22 °C; with Nucleic Acid [7], 1.01 °C; in the test on Nucleic Acid [9], 1.33 °C.
Consider `C/C=C1/C[C@H]2C=Nc3cc(OCc4ccccc4)c(OC)cc3C(=O)N2C1`, for which the values for the Resistance factor in test [2] and in [8] were 1.9 and 1, respectively. Also, the Cytotoxicity in the test on A2780 [3] amounted to 0.066 µM; with A2780 [4] it was 0.034 µM; in the test with CH1 [1], 0.031 µM; in the test on SK-OV-3, 0.081 µM; in the test on CH1 [6] it was 0.031 µM. In addition, the ΔTm with Nucleic Acid [5] is 1.65 °C; with Nucleic Acid [7] it was 0.92 °C; with Nucleic Acid [9], 2.34 °C.
On to `C/C=C1/C[C@H]2C=Nc3cc(OC)c(OC)cc3C(=O)N2C1`, for which the Resistance factor in [2] was found to be 1.9; in test [8], 1.6. For the same compound, the Cytotoxicity turned out to be 0.14 µM in the test with A2780 [3]; 0.071 µM in the test with A2780 [4]; 0.035 µM with CH1 [1]; 0.135 µM in the test on SK-OV-3; 0.056 µM with CH1 [6]. Besides, the ΔTm came out at 1.47 °C with Nucleic Acid [5], 0.84 °C with Nucleic Acid [7] and 1.86 °C in the test on Nucleic Acid [9].
Consider `C=C1C[C@H]2C=Nc3cc(OC)c(OC)cc3C(=O)N2C1`, for which the values for the Resistance factor in [2] and in test [8] were 2.4 and 1.3, respectively. The Cytotoxicity with A2780 [3] came out at 0.36 µM; in the test on A2780 [4] it was 0.15 µM; in the test with CH1 [1], 0.066 µM; with SK-OV-3 it was 0.39 µM; in the test on CH1 [6], 0.084 µM. For the same compound, the ΔTm turned out to be 1.95 °C with Nucleic Acid [5], 1.46 °C in the test with Nucleic Acid [7] and 2.38 °C in the test with Nucleic Acid [9].
